Reference: ChEMBL document CHEMBL1146832, “N-Benzylindole-2-carboxylic acids: potent functional antagonists of the CCR2b chemokine receptor” (Bioorg Med Chem Lett, 2004)
pIC50: −log10 of the molar value.

Biological target: C-C chemokine receptor type 2 (Homo sapiens, UniProt P41597)
Experiment: Inhibition of human C-C chemokine receptor type 2

Chain of C-C chemokine receptor type 2 (P41597 whole entry): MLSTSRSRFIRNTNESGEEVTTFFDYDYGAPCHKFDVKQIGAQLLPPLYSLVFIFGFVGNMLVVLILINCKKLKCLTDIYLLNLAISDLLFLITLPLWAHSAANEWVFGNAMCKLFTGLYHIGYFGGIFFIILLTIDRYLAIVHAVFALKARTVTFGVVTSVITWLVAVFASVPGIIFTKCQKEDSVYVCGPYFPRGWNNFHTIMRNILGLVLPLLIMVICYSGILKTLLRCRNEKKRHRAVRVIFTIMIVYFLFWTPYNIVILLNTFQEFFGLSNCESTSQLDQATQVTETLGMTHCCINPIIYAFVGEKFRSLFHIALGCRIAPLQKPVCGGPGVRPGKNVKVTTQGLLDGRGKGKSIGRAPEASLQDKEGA

Row | Compound | pIC50
1 | O=C(O)c1cc2ccccc2n1S(=O)(=O)c1ccc(Cl)c(Cl)c1 | 5.99
2 | COc1ccc2cc(C(=O)O)n(Cc3ccc(Cl)c(Cl)c3)c2c1 | 5.64
3 | COc1cccc2c1cc(C(=O)O)n2Cc1ccc(Cl)c(Cl)c1 | 6.55
4 | O=C(O)c1cc2ccccc2n1Cc1cccc(Cl)c1 | 5.95
5 | O=C(O)c1cc2c(F)cccc2n1Cc1ccc(Cl)c(Cl)c1 | 7.00
6 | Nc1ccc2cc(C(=O)O)n(Cc3ccc(Cl)c(Cl)c3)c2c1 | 4.90
7 | O=C(NS(=O)(=O)c1ccccc1)c1cc2ccccc2n1Cc1ccc(Cl)c(Cl)c1 | 5.32
8 | Cc1ccc(Cn2c(C(=O)O)cc3cc(Cl)ccc32)cc1Cl | 6.92
9 | O=C(O)c1cc2cccc(Cl)c2n1Cc1ccc(Cl)c(Cl)c1 | 6.47
10 | Nc1ccc2c(c1)cc(C(=O)O)n2Cc1ccc(Cl)c(Cl)c1 | 6.30
11 | O=C(O)c1cc2ccc(Cl)cc2n1Cc1ccc(Cl)c(Cl)c1 | 6.47
12 | O=C(O)c1cc2c(C(F)(F)F)cccc2n1Cc1ccc(Cl)c(Cl)c1 | 5.92
13 | O=C(O)c1cc2cc([N+](=O)[O-])ccc2n1Cc1ccc(Cl)c(Cl)c1 | 6.41
14 | O=C(O)c1cc2c([N+](=O)[O-])cccc2n1Cc1ccc(Cl)c(Cl)c1 | 5.88
15 | O=C(NS(=O)(=O)C(F)(F)F)c1cc2cc(F)ccc2n1Cc1ccc(Cl)c(Cl)c1 | 6.43
16 | O=C(O)c1c(Cl)c2ccccc2n1Cc1ccc(Cl)c(Cl)c1 | 6.59
17 | Clc1ccc(Cn2c(-c3nn[nH]n3)cc3ccccc32)cc1Cl | 5.99
18 | NC(=O)c1cc2ccccc2n1Cc1ccc(Cl)c(Cl)c1 | 4.90
19 | CS(=O)(=O)c1ccc2c(c1)cc(C(=O)O)n2Cc1ccc(Cl)c(Cl)c1 | 5.66
20 | O=C(O)c1cc2cccc([N+](=O)[O-])c2n1Cc1ccc(Cl)c(Cl)c1 | 4.96
21 | COc1cccc2cc(C(=O)O)n(Cc3ccc(Cl)c(Cl)c3)c12 | 5.92
22 | O=C(O)c1cc2ccccc2n1Cc1ccc(Cl)c(Cl)c1 | 6.64
23 | O=C(O)c1cc2ccccc2n1Cc1ccc(-c2ccccc2)cc1 | < 4.30
24 | O=C(O)c1cc2ccccc2n1Cc1ccc(Cl)cc1 | 5.87
25 | N#Cc1cccc(Cn2c(C(=O)O)cc3cc(Cl)ccc32)c1 | 5.70
26 | O=C(O)c1c(C(=O)O)n(Cc2ccc(Cl)c(Cl)c2)c2ccccc12 | 7.02
27 | CS(=O)(=O)c1cccc2c1cc(C(=O)O)n2Cc1ccc(Cl)c(Cl)c1 | 5.41

Row | Compound | pIC50
28 | COc1ccc(Cn2c(C(=O)O)cc3cc(Cl)ccc32)cc1 | 5.24
29 | O=C(O)c1cc2cc(Cl)ccc2n1Cc1cccc([N+](=O)[O-])c1 | 6.19
30 | O=C(O)c1cc2cccc(C(F)(F)F)c2n1Cc1ccc(Cl)c(Cl)c1 | 5.90
31 | O=C(O)c1cc2cc(Cl)ccc2n1Cc1ccc(Cl)c(Cl)c1 | 6.96
32 | O=C(O)c1cc2ccc(F)cc2n1Cc1ccc(Cl)c(Cl)c1 | 7.05
33 | O=C(O)c1cc2ccc([N+](=O)[O-])cc2n1Cc1ccc(Cl)c(Cl)c1 | 5.79
34 | Cc1ccc(Cn2c(C(=O)O)cc3cc(Cl)ccc32)cc1C | 6.66
35 | O=C(O)c1cc2ccc(C(F)(F)F)cc2n1Cc1ccc(Cl)c(Cl)c1 | 5.98
36 | O=C(O)c1cc2cc(Cl)ccc2n1Cc1ccc(OCc2ccccc2)cc1 | < 4.30
37 | O=C(O)c1cccc(Cn2c(C(=O)O)cc3cc(Cl)ccc32)c1 | 4.57
38 | O=C(O)c1cc2ccccc2n1Cc1ccccc1 | 5.77
39 | COc1c(C(=O)O)n(Cc2ccc(Cl)c(Cl)c2)c2ccccc12 | 6.11
40 | Nc1cccc2c1cc(C(=O)O)n2Cc1ccc(Cl)c(Cl)c1 | 6.64
41 | O=C(O)c1cc2c(-c3ccccc3)cccc2n1Cc1ccc(Cl)c(Cl)c1 | 6.19
42 | O=C(O)c1cc2cc(-c3ccccc3)ccc2n1Cc1ccc(Cl)c(Cl)c1 | 5.07
43 | CS(=O)(=O)NC(=O)c1cc2ccccc2n1Cc1ccc(Cl)c(Cl)c1 | 5.22
44 | O=C(O)c1cc2ccccc2n1C(=O)c1ccc(Cl)c(Cl)c1 | < 4.30
45 | O=C(O)c1cc2c(Cl)cccc2n1Cc1ccc(Cl)c(Cl)c1 | 6.82
46 | COc1cccc(Cn2c(C(=O)O)cc3cc(Cl)ccc32)c1 | 5.52
47 | N#Cc1c(C(=O)O)n(Cc2ccc(Cl)c(Cl)c2)c2ccccc12 | 6.52
48 | O=C(O)c1cc2cc(Cl)ccc2n1Cc1ccccc1Cl | 5.83
49 | O=C(O)c1cc2cc(C(F)(F)F)ccc2n1Cc1ccc(Cl)c(Cl)c1 | 6.77
50 | O=C(O)c1cc2ccc(-c3ccccc3)cc2n1Cc1ccc(Cl)c(Cl)c1 | 4.91
51 | COc1ccc2c(c1)cc(C(=O)O)n2Cc1ccc(Cl)c(Cl)c1 | 6.39
52 | O=C(O)c1cc2cc(F)ccc2n1Cc1ccc(Cl)c(Cl)c1 | 7.25
53 | O=C(O)c1cc2cccc(F)c2n1Cc1ccc(Cl)c(Cl)c1 | 6.90
